{"source": "patent US11752125B2", "about": "“Anti-neuroinflammatory and protective compounds in Achillea fragrantissima” (THE STATE OF ISRAEL MINISTRY OF AGRICULTURE & RURAL …, priority 2013, dated 2023)", "key": {"SAPK/JNK": {"system": "SAPK/JNK", "assay": "H2O2-induced SAPK/JNK phosphorylation in astrocytes (ELISA)", "format": "cell-based, rat", "settings": "H2O2 175 μM 40 min", "procedure": "Astrocytes were treated with TTF 2 h before the addition of H2O2. Cells were lysed 40 minutes after the addition of H2O2 in lysis buffer supplied by PathScan sandwich ELISA kit (Cell Signaling TECHNOLOGY) according to the manufacturer's protocol. Protein concentrations in cell lysates were determined by Bradford reagent (Bio-Rad, Hercules, Calif.), and equal amounts of proteins were subjected to ELISA. To measure the amount of total and phosphoSAPK/JNK in cell lysates of astrocytes, ELISA was performed according to the manufacturer's protocol using the PathScan total SAPK/JNK sandwich ELISA kit (Cell Signaling TECHNOLOGY) and the PathScan phospho-SAPK/JNK (Thr183/Tyr185) sandwich ELISA kit (Cell Signaling TECHNOLOGY), respectively. […] The optical density was determined at 450 nm using a microplate reader.\n1. […] Determine the optical density at 450 nm using a microplate reader.\nAstrocytes were treated with 175 μM of H2O2 for 40 min following preincubation with TTF for 2 h. The levels of phosphorylated and total SAPK/JNK (FIG. 3A), MEK1 (FIG. 3B) and ERK 1/2 (FIG. 3C) were measured by ELISA. […]"}, "N2a neuronal cells [1]": {"system": "N2a neuronal cells", "assay": "Aβ25-35-induced ROS elevation in N2a cells", "format": "cell-based", "settings": "Aβ25-35 25 μM, 20 hr", "procedure": "2. Plate N2a cells (10,000 cells/0.2 ml/well of 96 wells plate) in DMEM (high glucose, 225 ml), Opti-MEM (250 mil) containing 5% Fetal Bovine Serum, 2 mM L-Glutamine, 100 U/ml penicillin and 100 micrograms/mL streptomycin and incubate (37° C., 5% CO2) for 24 hr. 3. Replace the medium with a fresh one containing 20 micromolars 2′7′-dichlorofluorescein diacetate (DCF-DA); 4. Incubate 30 min (37° C., 5% CO2); 5. Wash twice with PBS; 6. Replace with fresh medium; 7. Read fluorescence of “time 0” at 485 nm (Extinction) and 528 nm (Emmision). 8. Incubate the cultured cells for 2 hours with freshly diluted TTF or AcA of the invention; 9. Add freshly diluted Aβ25-35 (25 micromolars); 10. Read fluorescence at 20 hr after the addition of Aβ25-35 (25 micromolars) (Ex: 485 nm and Em: 528 nm). 11. A reduction of 70% of ROS levels are indication for an anti-oxidant activity in this assay.\nN2a neuronal cells were treated with Aβ25-35 (25 μM) and TTF. ROS levels were measured 20 hr later. The results are shown in FIG. 11 and are the mean±SEM of two different experiments (n=15).\n(§1) N2a neuronal cells were treated with Aβ25-35 (25 μM) and achillolide A. Cytotoxicity (FIG. 27A) viability (FIG. 27B) and ROS levels (FIG. 27C) were measured 20 hr later. The results are the mean±SEM of two different experiments (n=16)."}, "N2a neuronal cells [2]": {"system": "N2a neuronal cells", "assay": "Aβ25-35-induced neuronal cell death (LDH, crystal violet)", "format": "cell-based", "settings": "Aβ25-35 25 μM, 20 hr; LDH and crystal violet", "procedure": "Treat N2a neuronal cells with 25 micromolars of freshly diluted Aβ25-35 in the presence or absence of AcA or TTF.\nN2a neuronal cells were treated with Aβ25-35 (25 μM) and TTF. Cytotoxicity (FIG. 10A) and viability (FIG. 10B) were obtained through LDH method and Crystal violet staining respectively and measured 20 hr later. The results are the mean±SEM of two different experiments (n=15).\nas §1"}}}
{"compound": "C=C1CCC2=C(CO)C(=O)O[C@H]2/C=C(\\C)[C@H](OC(C)=O)CC1=O", "note": "[achillolide A]", "values": [{"measurement": "effect on H2O2-induced phosphorylation of SAPK/JNK", "setting": "SAPK/JNK; astrocytes preincubated 2 h", "result": "inhibitory effect"}, {"measurement": "effect on Aβ25-35-induced ROS elevation", "setting": "N2a neuronal cells [1]", "result": "prevents the elevation in ROS levels"}, {"measurement": "effect on Aβ25-35-induced cytotoxicity", "setting": "N2a neuronal cells [2]", "result": "prevents the cytotoxic effect at nanomolar concentrations"}]}
{"compound": "COc1cc(-c2oc3cc(OC)c(OC)c(O)c3c(=O)c2O)ccc1O", "note": "[TTF, 3,5,4′-trihydroxy-6,7,3′-trimethoxyflavone]", "values": [{"measurement": "inhibition of H2O2-induced phosphorylation of SAPK/JNK", "setting": "SAPK/JNK; astrocytes pretreated 2 h, total SAPK/JNK not affected", "result": 80, "unit": "%"}, {"measurement": "effect on Aβ25-35-induced ROS elevation", "setting": "N2a neuronal cells [1]", "result": "prevents the elevation in ROS levels"}, {"measurement": "effect on Aβ25-35-induced cytotoxicity", "setting": "N2a neuronal cells [2]", "result": "prevents the cytotoxic effect at nanomolar concentrations"}]}
